Reference: patent US10906873B2, “Substituted cyclic amides as herbicides” (FMC Corporation, priority 2015, dated 2021)

Columns and labels:
Type in all cases: in vivo
[1] = tested on: ducksalad (Heteranthera limosa); test: Test B flooded paddy test, ducksalad; conditions: Flood, scale of 0 to 100 where 0 is no effect and 100 is complete control, 13 to 15 d
Procedure: (§1) Plant species in the flooded paddy test selected from rice (Oryza sativa), sedge, umbrella (small-flower umbrella sedge, Cyperus difformis), ducksalad (Heteranthera limosa), and barnyardgrass (Echinochloa crus-galli) were grown to the 2-leaf stage for testing. At time of treatment, test pots were flooded to 3 cm above the soil surface, treated by application of test compounds directly to the paddy water, and then maintained at that water depth for the duration of the test. Treated plants and controls were maintained in a greenhouse for 13 to 15 d, after which time all species were compared to controls and visually evaluated. Plant response ratings, summarized in Table B, are based on a scale of 0 to 100 where 0 is no effect and 100 is complete control. A dash (-) response means no test result.

[2] = tested on: kochia (Kochia scoparia); test: Test A preemergence, kochia; conditions: 0 to 100 scale
From the text: (§2) Seeds of plant species selected from barnyardgrass (Echinochloa crus-galli), crabgrass (large crabgrass, Digitaria sanguinalis), kochia (Kochia scoparia), ragweed (common ragweed, Ambrosia elatior), morningglory (Ipomoea spp.), velvetleaf (Abutilon theophrasti), ryegrass, It. (Italian ryegrass, Lolium multiflorum), foxtail, giant (giant foxtail, Setaria faberii), wheat (Triticum aestivum), corn (Zea mays), and pigweed (Amaranthus retroflexus), were planted into a blend of loam soil and sand and treated preemergence with a directed soil spray using test chemicals formulated in a non-phytotoxic solvent mixture which included a surfactant. At the same time, plants selected from these crop and weed species and also blackgrass (Alopecurus myosuroides), and galium (catchweed bedstraw, Galium aparine), were planted in pots containing the same blend of loam soil and sand and treated with postemergence applications of test chemicals formulated in the same manner. Plants ranged in height from 2 to 10 cm and were in the one- to two-leaf stage for the postemergence treatment. Treated plants and untreated controls were maintained in a greenhouse for approximately 10 d, after which time all treated plants were compared to untreated controls and visually evaluated for injury. Plant response ratings, summarized in Table A, are based on a 0 to 100 scale where 0 is no effect and 100 is complete control. A dash (-) response means no test result.

[3] = tested on: corn (Zea mays); test: Test A postemergence, corn; conditions: 0 to 100 scale
From the text: as §2

[4] = tested on: blackgrass (Alopecurus myosuroides); test: Test A postemergence, blackgrass; conditions: 0 to 100 scale
From the text: as §2

[5] = tested on: ragweed (common ragweed, Ambrosia elatior); test: Test A postemergence, ragweed; conditions: 0 to 100 scale
From the text: as §2

[6] = tested on: wheat (Triticum aestivum); test: Test A postemergence, wheat; conditions: 0 to 100 scale
From the text: as §2

[7] = tested on: barnyardgrass (Echinochloa crus-galli); test: Test A postemergence, barnyardgrass; conditions: 0 to 100 scale
From the text: as §2

[8] = tested on: ryegrass, It. (Italian ryegrass, Lolium multiflorum); test: Test A postemergence, ryegrass, It.; conditions: 0 to 100 scale
From the text: as §2

[9] = tested on: galium (catchweed bedstraw, Galium aparine); test: Test A postemergence, galium; conditions: 0 to 100 scale
From the text: as §2

[10] = tested on: pigweed (Amaranthus retroflexus); test: Test A postemergence, pigweed; conditions: 0 to 100 scale
From the text: as §2

[11] = tested on: barnyardgrass (Echinochloa crus-galli); test: Test A preemergence, barnyardgrass; conditions: 0 to 100 scale
From the text: as §2

[12] = tested on: barnyardgrass (Echinochloa crus-galli); test: Test B flooded paddy test, barnyardgrass; conditions: Flood, scale of 0 to 100 where 0 is no effect and 100 is complete control, 13 to 15 d
Procedure: as §1

[13] = tested on: ragweed (common ragweed, Ambrosia elatior); test: Test A preemergence, ragweed; conditions: 0 to 100 scale
From the text: as §2

[14] = tested on: foxtail, giant (giant foxtail, Setaria faberii); test: Test A preemergence, foxtail, giant; conditions: 0 to 100 scale
From the text: as §2

[15] = tested on: sedge, umbrella (small-flower umbrella sedge, Cyperus difformis); test: Test B flooded paddy test, sedge, umbrella; conditions: Flood, scale of 0 to 100 where 0 is no effect and 100 is complete control, 13 to 15 d
Procedure: as §1

[16] = tested on: rice (Oryza sativa); test: Test B flooded paddy test, rice; conditions: Flood, scale of 0 to 100 where 0 is no effect and 100 is complete control, 13 to 15 d
Procedure: as §1

[17] = tested on: foxtail, giant (giant foxtail, Setaria faberii); test: Test A postemergence, foxtail, giant; conditions: 0 to 100 scale
From the text: as §2

[18] = tested on: pigweed (Amaranthus retroflexus); test: Test A preemergence, pigweed; conditions: 0 to 100 scale
From the text: as §2

[19] = tested on: kochia (Kochia scoparia); test: Test A postemergence, kochia; conditions: 0 to 100 scale
From the text: as §2

[20] = tested on: ryegrass, It. (Italian ryegrass, Lolium multiflorum); test: Test A preemergence, ryegrass, It.; conditions: 0 to 100 scale
From the text: as §2

Structure (SMILES) | Plant response rating, Kochia ([2]; 125 g ai/ha) | Plant response rating, Kochia ([2]; 500 g ai/ha) | Plant response rating, Corn ([3]; 125 g ai/ha) | Plant response rating, Corn ([3]; 500 g ai/ha) | Plant response rating, Blackgrass ([4]; 125 g ai/ha) | Plant response rating, Blackgrass ([4]; 500 g ai/ha) | Plant response rating, Ragweed ([5]; 125 g ai/ha) | Plant response rating, Ragweed ([5]; 500 g ai/ha) | Plant response rating, Wheat ([6]; 125 g ai/ha) | Plant response rating, Wheat ([6]; 500 g ai/ha) | Plant response rating, Barnyardgrass ([7]; 125 g ai/ha) | Plant response rating, Barnyardgrass ([7]; 500 g ai/ha) | Plant response rating, Ryegrass, It. ([8]; 125 g ai/ha) | Plant response rating, Ryegrass, It. ([8]; 500 g ai/ha) | Plant response rating, Galium ([9]; 125 g ai/ha) | Plant response rating, Galium ([9]; 500 g ai/ha) | Plant response rating, Pigweed ([10]; 125 g ai/ha) | Plant response rating, Pigweed ([10]; 500 g ai/ha) | Plant response rating, Barnyardgrass ([11]; 125 g ai/ha) | Plant response rating, Barnyardgrass ([11]; 500 g ai/ha) | other results
O=C1NCC(CCc2ccccc2)C1C(=O)Nc1ccccc1F (stereo not drawn) [Compound 20] | 0 | 0 | 0 | 0 | 0 | 0 | 0 | 0 | 0 | 0 | 0 | 0 | 0 | 0 | 0 | 0 | 0 | 0 | 0 | 0 | Plant response rating, Ducksalad ([1]; 250 g ai/ha): 50; Plant response rating, Barnyardgrass ([12]; 250 g ai/ha): 0; Plant response rating, Ragweed ([13]; 125 g ai/ha): 0; Plant response rating, Ragweed ([13]; 500 g ai/ha): 0; Plant response rating, Foxtail, Giant ([14]; 125 g ai/ha): 0; Plant response rating, Foxtail, Giant ([14]; 500 g ai/ha): 0; Plant response rating, Sedge, Umbrella ([15]; 250 g ai/ha): 0; Plant response rating, Rice ([16]; 250 g ai/ha): 0; Plant response rating, Foxtail, Giant ([17]; 125 g ai/ha): 0; Plant response rating, Foxtail, Giant ([17]; 500 g ai/ha): 0; Plant response rating, Pigweed ([18]; 125 g ai/ha): 0; Plant response rating, Pigweed ([18]; 500 g ai/ha): 0; Plant response rating, Kochia ([19]; 125 g ai/ha): 0; Plant response rating, Kochia ([19]; 500 g ai/ha): 0; Plant response rating, Ryegrass, It. ([20]; 125 g ai/ha): 0; Plant response rating, Ryegrass, It. ([20]; 500 g ai/ha): 0
O=C1NCC(/C=C/c2ccccc2)C1C(=O)Nc1ccccc1F (stereo not drawn) [Compound 32] | 0 | 0 | 20 | 20 | 0 | 0 | 10 | 10 | 0 | 0 | 40 | 90 | 0 | 0 | 0 | 0 | 0 | 0 | 20 | 60 | Plant response rating, Ducksalad ([1]; 250 g ai/ha): 70; Plant response rating, Barnyardgrass ([12]; 250 g ai/ha): 0; Plant response rating, Ragweed ([13]; 125 g ai/ha): 0; Plant response rating, Ragweed ([13]; 500 g ai/ha): 0; Plant response rating, Foxtail, Giant ([14]; 125 g ai/ha): 0; Plant response rating, Foxtail, Giant ([14]; 500 g ai/ha): 80; Plant response rating, Sedge, Umbrella ([15]; 250 g ai/ha): 0; Plant response rating, Rice ([16]; 250 g ai/ha): 0; Plant response rating, Foxtail, Giant ([17]; 125 g ai/ha): 20; Plant response rating, Foxtail, Giant ([17]; 500 g ai/ha): 80; Plant response rating, Pigweed ([18]; 125 g ai/ha): 0; Plant response rating, Pigweed ([18]; 500 g ai/ha): 0; Plant response rating, Kochia ([19]; 125 g ai/ha): 0; Plant response rating, Kochia ([19]; 500 g ai/ha): 0; Plant response rating, Ryegrass, It. ([20]; 125 g ai/ha): 0; Plant response rating, Ryegrass, It. ([20]; 500 g ai/ha): 0
O=C(CCC1CNC(=O)C1C(=O)Nc1ccccc1F)Nc1ccc(F)cc1 (stereo not drawn) [Compound 15] | 0 | 0 | 0 | 0 | 0 | 0 | 0 | 0 | 0 | 0 | 0 | 0 | 0 | 0 | 0 | 0 | 0 | 0 | 0 | 0 | Plant response rating, Ducksalad ([1]; 500 g ai/ha): 70; Plant response rating, Barnyardgrass ([12]; 500 g ai/ha): 0; Plant response rating, Ragweed ([13]; 125 g ai/ha): 0; Plant response rating, Ragweed ([13]; 500 g ai/ha): 0; Plant response rating, Foxtail, Giant ([14]; 125 g ai/ha): 0; Plant response rating, Foxtail, Giant ([14]; 500 g ai/ha): 0; Plant response rating, Sedge, Umbrella ([15]; 500 g ai/ha): 0; Plant response rating, Rice ([16]; 500 g ai/ha): 0; Plant response rating, Foxtail, Giant ([17]; 125 g ai/ha): 0; Plant response rating, Foxtail, Giant ([17]; 500 g ai/ha): 0; Plant response rating, Pigweed ([18]; 125 g ai/ha): 0; Plant response rating, Pigweed ([18]; 500 g ai/ha): 0; Plant response rating, Kochia ([19]; 125 g ai/ha): 0; Plant response rating, Kochia ([19]; 500 g ai/ha): 0; Plant response rating, Ryegrass, It. ([20]; 125 g ai/ha): 0; Plant response rating, Ryegrass, It. ([20]; 500 g ai/ha): 0
O=C1NCC(/C=C/c2ccccc2F)C1C(=O)Nc1ccccc1F (stereo not drawn) [Compound 34] | 0 | 0 | 0 | 0 | 0 | 0 | 0 | 0 | 0 | 20 | 0 | 60 | 0 | 0 | 0 | 0 | 0 | 0 | 20 | 80 | Plant response rating, Ducksalad ([1]; 250 g ai/ha): 80; Plant response rating, Barnyardgrass ([12]; 250 g ai/ha): 0; Plant response rating, Ragweed ([13]; 125 g ai/ha): 0; Plant response rating, Ragweed ([13]; 500 g ai/ha): 0; Plant response rating, Foxtail, Giant ([14]; 125 g ai/ha): 20; Plant response rating, Foxtail, Giant ([14]; 500 g ai/ha): 80; Plant response rating, Sedge, Umbrella ([15]; 250 g ai/ha): 60; Plant response rating, Rice ([16]; 250 g ai/ha): 15; Plant response rating, Foxtail, Giant ([17]; 125 g ai/ha): 20; Plant response rating, Foxtail, Giant ([17]; 500 g ai/ha): 80; Plant response rating, Pigweed ([18]; 125 g ai/ha): 80; Plant response rating, Pigweed ([18]; 500 g ai/ha): 100; Plant response rating, Kochia ([19]; 125 g ai/ha): 0; Plant response rating, Kochia ([19]; 500 g ai/ha): 0; Plant response rating, Ryegrass, It. ([20]; 125 g ai/ha): 0; Plant response rating, Ryegrass, It. ([20]; 500 g ai/ha): 0
O=C1NCC(Cc2ccccc2C(F)(F)F)C1C(=O)Nc1cccc(F)c1F (stereo not drawn) [Compound 9] | 0 | 50 | 0 | 0 | 0 | 0 | 0 | 0 | 0 | 0 | 10 | 60 | 0 | 0 | 0 | 0 | 0 | 0 | 0 | 50 | Plant response rating, Ducksalad ([1]; 500 g ai/ha): 40; Plant response rating, Barnyardgrass ([12]; 500 g ai/ha): 0; Plant response rating, Ragweed ([13]; 125 g ai/ha): 0; Plant response rating, Ragweed ([13]; 500 g ai/ha): 30; Plant response rating, Foxtail, Giant ([14]; 125 g ai/ha): 0; Plant response rating, Foxtail, Giant ([14]; 500 g ai/ha): 50; Plant response rating, Sedge, Umbrella ([15]; 500 g ai/ha): 0; Plant response rating, Rice ([16]; 500 g ai/ha): 0; Plant response rating, Foxtail, Giant ([17]; 125 g ai/ha): 0; Plant response rating, Foxtail, Giant ([17]; 500 g ai/ha): 0; Plant response rating, Pigweed ([18]; 125 g ai/ha): 0; Plant response rating, Pigweed ([18]; 500 g ai/ha): 0; Plant response rating, Kochia ([19]; 125 g ai/ha): 0; Plant response rating, Kochia ([19]; 500 g ai/ha): 30; Plant response rating, Ryegrass, It. ([20]; 125 g ai/ha): 0; Plant response rating, Ryegrass, It. ([20]; 500 g ai/ha): 0
